Assay [1] deals with KAI2. Details: method as in PMID 25126711. As to conditions: cited from earlier work.
The target in assay [2] is T1, ShKAI2iB (Striga hermonthica, UniProt A0A0M3PN85, C270S). Briefly: Enzymatic degradation (hydrolysis) assay of rac-GR24 with HPLC. As to conditions: 10 μM rac-GR24, 6 μg ml^−1 protein, 3 h, 37 °C. The assay is classed as biochemical. The procedure: The enzymatic degradation assay of rac-GR24 was performed in a total volume of 1 ml of PBS buffer containing 10 μM rac-GR24. Purified OsD14[23] and ShKAI2iB were added at a final concentration of 6 μg ml^−1 and incubated for 3 h at 37 °C. Then 100 mg of NaCl and 100 μl of 0.1 M HCl were added to each reaction solution, and the reaction solutions were extracted with 400 μl of ethyl acetate three times. The ethyl acetate layers were combined and dried in vacuo and dissolved in 50 μl of methanol. For each layer, 10 μl was applied to the HPLC analyses. The reverse-phase chromatographic separation was performed on a Jasco HPLC system that was equipped with an HPLC pump of model PU 2080 (Jasco) and a photodiode array detector MD1510 (Jasco). The system was controlled by the ChromNAV (Ver. 1.18.07) software program (Jasco). The analytical column was a CAPCELL CORE C18 (Φ 4.6 × 100 mm, Shiseido). The analytes were eluted under gradient conditions using methanol ramped linearly to 90% methanol at 9 min and held for 4.5 min before resetting to the original conditions. The contents of rac-GR24 was calculated by the peak area at the retention time 6.2 min with the regression equation obtained from the calibration curve produced using a dilution series of rac-GR24 solution. […] Statistical differences between the groups were calculated with ANOVA analysis followed by Tukey–Kramer test.
T1 sequence (A0A0M3PN85 1-270 C270S): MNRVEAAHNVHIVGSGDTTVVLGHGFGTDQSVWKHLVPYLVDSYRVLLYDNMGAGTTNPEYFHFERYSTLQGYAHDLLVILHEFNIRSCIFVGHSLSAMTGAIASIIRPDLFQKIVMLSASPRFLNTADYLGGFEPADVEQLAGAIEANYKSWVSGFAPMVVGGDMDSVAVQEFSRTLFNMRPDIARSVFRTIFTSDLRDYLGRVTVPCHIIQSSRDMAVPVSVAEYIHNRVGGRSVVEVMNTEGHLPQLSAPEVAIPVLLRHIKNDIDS

For assay [3], the target named is T1, ShKAI2iB. Briefly: Intrinsic fluorescence binding assay. The procedure: The coding sequence cDNA of ShKAI2iB was amplified by PCR using total complementary DNA from the total RNA of 1-day conditioned Striga seeds. ShKAI2iB (1–270, C270S) was designed for crystallization and other assays. For expression in Escherichia coli, the PCR product was cloned into an expression vector pGEX-6P-3 (GE Healthcare) and subsequently transformed into E. coli strain Rosetta (DE3) (Novagen). IPTG-induced overexpression was performed for 20 h at 25 °C. […] Purified ShKAI2iB was dialyzed against buffer B (20 mM HEPES-NaOH, pH 8.0, 50 mM NaCl) for the ITC experiments and the intrinsic fluorescence assay.
KD values were also determined by using intrinsic fluorescence assays. Fluorescence measurements were conducted as previously described[16] with minor modifications. […] Flat-bottomed, black 96 well plates were used to read fluorescence intensity using a Tecan Infinite M1000 monochromator. Measurements were taken at room temperature under a 285 nm excitation wavelength, a 333 nm emission wavelength, 50 flashes, and a 400 Hz flash frequency with a gain of 70 and a 2 μs integration time. ΔF (rfu, relative fluorescence units) was calculated by subtracting the fluorescence of the DMSO control. […]

The test system of assay [4] is KAI2. More on the design: method as in PMID 25126711. As to conditions: cited from earlier work. The source holds these as a separate data set.
The target in assay [5] is T1, ShKAI2iB. Briefly: ITC binding to ShKAI2iB (wild type). How it is done: (§1) The coding sequence cDNA of ShKAI2iB was amplified by PCR using total complementary DNA from the total RNA of 1-day conditioned Striga seeds. ShKAI2iB (1–270, C270S) was designed for crystallization and other assays. For expression in Escherichia coli, the PCR product was cloned into an expression vector pGEX-6P-3 (GE Healthcare) and subsequently transformed into E. coli strain Rosetta (DE3) (Novagen). IPTG-induced overexpression was performed for 20 h at 25 °C. For purification, cell pellets were lysed by sonication in buffer A (20 mM Tris-HCl, pH 8.0, 0.3 M NaCl, 1 mM DTT), and the soluble fraction separated by centrifugation was purified using Glutathione Sepharose 4B resin (GE Healthcare) and a Resource Q anion-exchange column (GE Healthcare). ShKAI2iB mutants were overexpressed and purified with the same procedure as wild-type protein. For crystallization, buffer exchange accompanied by concentration was performed using Vivaspin 20 (5,000 MWCO PES) (Sartorius). Purified ShKAI2iB was dialyzed against buffer B (20 mM HEPES-NaOH, pH 8.0, 50 mM NaCl) for the ITC experiments and the intrinsic fluorescence assay.
(§2) Binding assays of ShKAI2iB and KAR1 were performed using a MicroCal iTC200 isothermal titration calorimeter (GE Healthcare). Prior to the ITC experiments, concentrated ShKAI2iB was dialyzed against a buffer consisting of 20 mM HEPES-NaOH, pH 8.0, and 50 mM NaCl to remove dithiothreitol and then adjusted to a final concentration of 150 μM. The sample cell was filled with ShKAI2iB solution (204 μl). […] of 3 mM KAR1 or 3 mM rac-GR24 (equimolar mixture of two enantiomers: GR24^5DS and GR24^ent-5DS) was injected into the prepared protein solution by 20 consecutive 2.0 μl aliquots at 150 s intervals at 10 °C. The first injection volume was 0.4 μl, and the observed thermal peak was excluded from the data analyses. Duplicate experiments were performed independently. A negative control was made by titrating 3 mM KAR1 into a buffer (20 mM HEPES, pH 8.0, 50 mM NaCl) in the same manner. Data fitting was performed using Origin software in the “one set of sites” mode. The dissociation constant (KD) values were calculated from duplicate thermograms (mean ± S.D.).

The target in a further assay is ShKAI2iB L142A (Striga hermonthica, UniProt A0A0M3PN85, C270S/L142A). Briefly: ITC binding to ShKAI2iB L142A mutant. How it is done: as §1, §2
ShKAI2iB L142A, sequence (A0A0M3PN85 1-270 L142A/C270S): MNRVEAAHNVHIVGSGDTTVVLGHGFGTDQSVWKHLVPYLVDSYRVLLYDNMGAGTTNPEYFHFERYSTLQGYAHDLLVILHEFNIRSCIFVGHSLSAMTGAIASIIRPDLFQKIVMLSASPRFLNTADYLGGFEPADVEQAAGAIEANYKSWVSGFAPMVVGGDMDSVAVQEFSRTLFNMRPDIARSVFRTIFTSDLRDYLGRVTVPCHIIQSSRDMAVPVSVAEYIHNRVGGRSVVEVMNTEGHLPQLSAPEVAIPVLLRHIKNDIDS
(§3) Supplementary Figure 4. Results of ITC experiments between ShKAI2iB mutants and KAR1. ITC experiments were performed b y titrating KAR1 into ShKA I2iB mutants (a, F194A; b, S95A; c, L142A; d, F190L; e, V139 L) or into buffer as a negat ive control (f). The upper panel illustrates raw ITC data. The bottom panel represents data of the enthalpy cha nge deri ved fr om the upper panel. Corres ponding […]
(§4) (1 picture or pasted object on this page, not shown here)

For the next assay, the system named is S. hermonthica. Details: method as in PMID 26228149. The conditions noted are these: cited from earlier work.
The target in the next assay is ShKAI2iB V139L (Striga hermonthica, UniProt A0A0M3PN85, C270S/V139L). Briefly: ITC binding to ShKAI2iB V139L mutant. How it is done: as §1
ShKAI2iB V139L, sequence (A0A0M3PN85 1-270 V139L/C270S): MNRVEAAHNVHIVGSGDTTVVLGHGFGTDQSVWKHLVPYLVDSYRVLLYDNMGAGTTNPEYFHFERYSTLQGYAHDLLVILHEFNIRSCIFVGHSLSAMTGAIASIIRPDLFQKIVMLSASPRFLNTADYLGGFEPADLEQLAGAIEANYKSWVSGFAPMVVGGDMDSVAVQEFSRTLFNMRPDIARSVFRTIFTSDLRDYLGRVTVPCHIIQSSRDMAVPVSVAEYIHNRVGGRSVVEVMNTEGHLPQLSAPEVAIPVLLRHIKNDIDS
(§5) Binding assays of ShKAI2iB and KAR1 were performed using a MicroCal iTC200 isothermal titration calorimeter (GE Healthcare). Prior to the ITC experiments, concentrated ShKAI2iB was dialyzed against a buffer consisting of 20 mM HEPES-NaOH, pH 8.0, and 50 mM NaCl to remove dithiothreitol and then adjusted to a final concentration of 150 μM. The sample cell was filled with ShKAI2iB solution (204 μl). Two microliters of 3 mM KAR1 or 3 mM rac-GR24 (equimolar mixture of two enantiomers: GR24^5DS and GR24^ent-5DS) was injected into the prepared protein solution by 20 consecutive 2.0 μl aliquots at 150 s intervals at 10 °C. The first injection volume was 0.4 μl, and the observed thermal peak was excluded from the data analyses. Duplicate experiments were performed independently. […] The dissociation constant (KD) values were calculated from duplicate thermograms (mean ± S.D.). […]

In another assay the target is ShKAI2iB F194A (Striga hermonthica, UniProt A0A0M3PN85, C270S/F194A). The experiment in a line: ITC binding to ShKAI2iB F194A mutant. How it is done:
as §1, §2, §3, §4

In a further assay the target is ShKAI2iB F190L (Striga hermonthica, UniProt A0A0M3PN85, C270S/F190L). The experiment in a line: ITC binding to ShKAI2iB F190L mutant. How it is done: as §1, §5
ShKAI2iB F190L, sequence (A0A0M3PN85 1-270 F190L/C270S): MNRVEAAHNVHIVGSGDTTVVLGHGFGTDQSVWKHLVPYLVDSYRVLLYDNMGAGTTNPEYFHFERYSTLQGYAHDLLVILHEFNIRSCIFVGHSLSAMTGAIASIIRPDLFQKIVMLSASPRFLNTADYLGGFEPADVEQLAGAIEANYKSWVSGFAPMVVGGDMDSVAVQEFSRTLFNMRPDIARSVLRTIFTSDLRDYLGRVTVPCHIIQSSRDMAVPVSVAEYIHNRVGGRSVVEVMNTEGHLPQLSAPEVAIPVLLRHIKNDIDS
In the next assay the test system is ShKAI2iB S95A. Briefly: ITC binding to ShKAI2iB S95A mutant. Details: species or system Striga hermonthica. How it is done:
as §1
Binding assays of ShKAI2iB and KAR1 were performed using a MicroCal iTC200 isothermal titration calorimeter (GE Healthcare). […] The dissociation constant (KD) values were calculated from duplicate thermograms (mean ± S.D.). […]

This is an account of results in article PMC4979206, “Structural basis of unique ligand specificity of KAI2-like protein from parasitic weed Striga hermonthica” (Scientific Reports, 2016).

“And” between values parts separate entries of the source, which are not always exact repeats. Equal entries are not always repeated. “Also recorded” adds a separate entry of the source.

As a reminder, the Kd is the constant that tells how readily two partners part at equilibrium. Lower therefore signals tighter binding.

ShKAI2iB F194A, sequence (A0A0M3PN85 1-270 F194A/C270S): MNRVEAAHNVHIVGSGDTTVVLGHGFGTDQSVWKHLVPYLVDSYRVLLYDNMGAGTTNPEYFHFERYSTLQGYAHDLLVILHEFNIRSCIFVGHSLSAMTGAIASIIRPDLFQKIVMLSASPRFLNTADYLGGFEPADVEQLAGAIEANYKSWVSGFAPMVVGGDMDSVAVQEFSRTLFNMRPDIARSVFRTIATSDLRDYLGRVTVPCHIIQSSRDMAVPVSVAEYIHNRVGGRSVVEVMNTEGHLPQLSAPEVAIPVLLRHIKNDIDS

With `CC1=CC(OC=C2C(=O)OC3c4ccccc4CC23)OC1=O` (racemic) [rac-GR24], in the assay on KAI2 [1], the “binding to KAI2” value is given as “able to bind”. In addition, the “hydrolysis by ShKAI2iB” value was “not capable of hydrolyzing” at ShKAI2iB [2]; “unable to bind and hydrolyze” at ShKAI2iB [2] (listed as GR24). At ShKAI2iB [3] (wild-type ShKAI2iB), the “fluorescence change (binding)” value is “no detectable heat change or fluorescence change”. Also, the “hydrolysis by KAI2” value in the assay with KAI2 [4] is given as “exhibits hydrolytic activity”. Further, the “heat change in ITC (binding)” value on ShKAI2iB [5] (wild-type ShKAI2iB, 3 mM ligand titrated) is reported as “no detectable heat change”.
In the case of `Cc1c2ccocc-2oc1=O` [KAR1, 3-methyl-2H-furo [2,3-c] pyran-2-one], the Kd at ShKAI2iB L142A was 196 ± 24 µM; on ShKAI2iB V139L (KD, ITC), 35.6 µM and 36 µM; at ShKAI2iB [3], 70 ± 3.4 µM; on ShKAI2iB F194A it was 107 ± 10 µM; at ShKAI2iB [5], 77.6 ± 3.4 µM. Moreover, the ΔG result at ShKAI2iB L142A (L142A mutant) was “–4.76 kcal/mol”; on ShKAI2iB F194A (F194A mutant), “–5.11 kcal/mol”; on ShKAI2iB [5] (wild-type ShKAI2iB, ITC) it was “–5.35 kcal/mol”; at ShKAI2iB F190L it was “–4.75 kcal/mol”. Besides, the ΔH entry on ShKAI2iB L142A (L142A mutant) was “–7.00 ± 0.70 kcal mol^–1”; at ShKAI2iB V139L, “–12.87 ± 0.03 kcal mol^–1”; at ShKAI2iB F194A (F194A mutant), “–13.24 ± 63.94 kcal mol^–1”; at ShKAI2iB F190L, “–11.71 ± 8.89 kcal mol^–1”. The ΔS entry on ShKAI2iB L142A (L142A mutant) is on record as “–7.90 cal mol^–1 deg^–1”; on ShKAI2iB V139L it was “–24.8 cal mol^–1 deg^–1”; at ShKAI2iB F194A (F194A mutant), “–28.7 cal mol^–1 deg^–1”; at ShKAI2iB F190L, “–24.6 cal mol^–1 deg^–1”. In the assay on KAI2 [1], the “binding to KAI2” value is on record as “able to bind”. Besides, in the assay with S. hermonthica, the “induction of germination of S. hermonthica” value is given as “failed to induce germination”. Also, at ShKAI2iB F194A (F194A mutant), the “change of ITC result versus wild type” value is listed as “no significant change”. The “N (number of sites)” value at ShKAI2iB [5] (wild-type ShKAI2iB, ITC) is 0.91 ± 0.05. Also, the “ΔS (entropy change)” value at ShKAI2iB [5] (wild-type ShKAI2iB, ITC, 10 °C) is listed as “–3.99 cal mol^–1 deg^–1”. Besides, in the assay on ShKAI2iB S95A, the “heat change in ITC (binding)” value was “almost no heat change; also recorded: abolishes binding”.
